System: HCT116 cells
Experiment: HCT116 cytotoxic activity assay (Alamar Blue, 72 h)
Assay type: cell-based
Conditions: Homo sapiens, HCT-116, 72 h compound exposure
Method: Representative compounds of this invention were tested for cytotoxicity using the above-described assay procedure with the following results: […]

[1] = greater than 500 nM but less than or equal to 2 μM

Nc1nc(Nc2ccc(Oc3cc(N4CCCCC4)ccn3)cc2)cc(-c2ccccc2)n1 [Example 106, 6-phenyl-N4*-{4-[(4-piperidin-1-ylpyridin-2-yl)oxy]phenyl}pyrimidine-2,4-diamine]
IC50 (greater than 2 μM): > 2000 nM

CN1CCN(c2ccnc(Oc3ccc(Nc4cc(-c5ccccc5)nc(N)n4)cc3)c2)CC1 [Example 107, N4*-(4-{[4-(4-methylpiperazin-1-yl)pyridin-2-yl]oxy}phenyl)-6-phenylpyrimidine-2,4-diamine]
IC50 [1]: 500 to 2000 nM

Nc1nc(Nc2ccc(Oc3cc(N(CCO)CCO)ccn3)cc2)cc(-c2ccccc2)n1 [Example 108, 2,2′-[(2-{4-[(2-amino-6-phenylpyrimidin-4-yl)amino]phenoxy}pyridin-4-yl)imino]diethanol]
IC50 (greater than 2 μM): > 2000 nM

COCCN(CCOC)c1ccnc(Oc2ccc(Nc3cc(-c4ccccc4)nc(N)n3)cc2)c1 [Example 109, N4*-[4-({4-[bis(2-methoxyethyl)amino]pyridin-2-yl}oxy)phenyl]-6-phenylpyrimidine-2,4-diamine]
IC50 [1]: 500 to 2000 nM

CCC(CC)NCc1cc(Oc2ccc(Nc3cc(-c4ccccc4)nc(N)n3)cc2)ccn1 [Example 110, N4*-{4-[(2-{[(1-ethylpropyl)amino]methyl}pyridin-4-yl)oxy]phenyl}-6-phenylpyrimidine-2,4-diamine]
IC50 (greater than 2 μM): > 2000 nM

Nc1nc(Nc2ccc(Oc3ccnc(CNC4CCCCC4)c3)cc2)cc(-c2ccccc2)n1 [Example 111, N4*-[4-({2-[(cyclohexylamino)methyl]pyridin-4-yl}oxy)phenyl]-6-phenylpyrimidine-2,4-diamine]
IC50 (greater than 2 μM): > 2000 nM

Nc1nc(Nc2ccc(Oc3ccnc(C(F)(F)F)c3)cc2)cc(-c2ccc(Cl)c(Cl)c2)n1 [Example 112, 6-(3,4-dichlorophenyl)-N4*-(4-{[2-(trifluoromethyl)pyridin-4-yl]oxy}phenyl)pyrimidine-2,4-diamine]
IC50 [1]: 500 to 2000 nM

Nc1nc(Nc2cccc(Oc3ccnc(Cl)c3)c2)cc(-c2ccccc2)n1 [Example 113, N4*-{3-[(2-chloropyridin-4-yl)oxy]phenyl}-6-phenylpyrimidine-2,4-diamine]
IC50 (less than or equal to 500 nM): ≤ 500 nM

Nc1nc(Nc2ccc(Oc3ccnc(Cl)c3)cc2)cc(-c2ccc(F)cc2)n1 [Example 114, N4*-{4-[(2-chloropyridin-4-yl)oxy]phenyl}-6-(4-fluorophenyl)pyrimidine-2,4-diamine]
IC50 (less than or equal to 500 nM): ≤ 500 nM

Nc1nc(Nc2ccc(Oc3ccnc(Cl)c3)cc2)cc(-c2cccc([N+](=O)[O-])c2)n1 [Example 115, N4*-{4-[(2-chloropyridin-4-yl)oxy]phenyl}-6-(3-nitrophenyl)pyrimidine-2,4-diamine]
IC50 [1]: 500 to 2000 nM

Nc1ccc(-c2cc(Nc3ccc(Oc4ccnc(Cl)c4)cc3)nc(N)n2)cc1 [Example 116, 6-(4-aminophenyl)-N4*- {4-[(2-chloropyridin-4-yl)oxy]phenyl}pyrimidine-2,4-diamine]
IC50 (less than or equal to 500 nM): ≤ 500 nM

Nc1nc(Nc2ccc(Oc3ccnc(Cl)c3)c(F)c2)cc(-c2ccccc2)n1 [Example 117, N4*-{4-[(2-chloropyridin-4-yl)oxy]-3-fluorophenyl}-6-phenylpyrimidine-2,4-diamine]
IC50 (less than or equal to 500 nM): ≤ 500 nM

Nc1cccc(-c2cc(Nc3ccc(Oc4ccnc(Cl)c4)cc3)nc(N)n2)c1 [Example 118, 6-(3-aminophenyl)-N4*-{4-[(2-chloropyridin-4-yl)oxy]phenyl}pyrimidine-2,4-diamine]
IC50 (less than or equal to 500 nM): ≤ 500 nM

Nc1nc(Nc2cccc(Oc3ccnc(N4CCCCC4)c3)c2)cc(-c2ccccc2)n1 [Example 119, 6-phenyl-N4*-{3-[(2-piperidin-1-ylpyridin-4-yl)oxy]phenyl}pyrimidine-2,4-diamine]
IC50 (less than or equal to 500 nM): ≤ 500 nM

Nc1nc(Nc2cccc(Oc3ccnc(N4CCOCC4)c3)c2)cc(-c2ccccc2)n1 [Example 120, N4*-{3-[(2-morpholin-4-ylpyridin-4-yl)oxy]phenyl}-6-phenylpyrimidine-2,4-diamine]
IC50 (less than or equal to 500 nM): ≤ 500 nM

Nc1nc(Nc2cccc(Oc3ccnc(N4CCCC4)c3)c2)cc(-c2ccccc2)n1 [Example 121, 6-phenyl-N4*-{3-[(2-pyrrolidin-1-ylpyridin-4-yl)oxy]phenyl}pyrimidine-2,4-diamine]
IC50 (less than or equal to 500 nM): ≤ 500 nM

Reference: patent US7582645B2, “Pyrimidine derivatives for treatment of hyperproliferative disorders” (Bayer Pharmaceuticals Corporation, priority 2003, dated 2009)
